Experimental data published in patent publication US10174000B2, “Bicyclic-fused heteroaryl or aryl compounds as IRAK4 modulators” (PFIZER INC., priority 2015, dated 2019).

Tests used:
[1] = target: human IRAK4 FL (Full Length), phosphorylated (Homo sapiens (Human), UniProt Q9NWZ3); experiment: IRAK4 Enzymatic DELFIA Assay, Protocol A; assay type: biochemical; conditions: 600 μM ATP (KM); full-length phosphorylated recombinant human IRAK4
Method: IRAK4 Enzymatic DELFIA Assay, Protocol A.
This is an in vitro assay to measure IRAK4 enzymatic activity utilizing the DELFIA (Dissociation-Enhanced Lanthanide Fluorescent Immunoassay, Perkin-Elmer) platform, with the human IRAK4 FL (Full Length) construct to characterize IRAK4 inhibitor and control compounds at 600 μM ATP (KM). The final amount of enzyme in the assay is 0.1 nM IRAK4 FL, final concentration of substrate is 50 nM, and final concentration of DMSO is 2.5%.
The test compound was solubilized in DMSO to a stock concentration of 30 mM. The dose response plates were prepared with a 4 mM primary compound concentration (40-fold multiple of the final in-assay concentration), and diluted in DMSO in a four-fold series for a total of 11 data points. 1 μL of the compound dilution plate is spotted into ultra-clear polypropylene, 384-well, U-bottom plates (Corning Life Sciences).
To begin the assay, 19 μL of reaction mixture containing 20 mM HEPES pH=7.5, 5 mM MgCl2, 0.0025% Brij-35, 600 μM ATP, 0.21 nM Full-length phosphorylated recombinant human IRAK4 (GenBank ID AF445802) are aliquoted into the polypropylene, 384-well, U-bottom plates containing 1 μL of test compound, mixed briefly and incubated for 20 minutes at room temperature (RT). Then, 20 μL of 20 mM HEPES pH=7.5, 5 mM MgCl2, 0.0025% Brij-35, 600 μM ATP, and 100 nM ERM-biotinylated peptide (AGAGRDKYKTLRQIR) is added to start the reaction. The reaction is incubated for 60 minutes at RT and stopped by the addition of 20 μL 0.3M EDTA.
(§1) 50 μL of the reaction mixture was transferred to a streptavidin-coated detection plate (DELFIA streptavidin coated plates, 384-well, white plates, Perkin-Elmer Life Sciences) and incubated for 30 minutes at RT. The plates were washed 4× with 75 μL per well of PBS containing 0.05% Tween-20. Plates were then incubated with 50 μL per well of antibody cocktail of Anti-pERM antibody at 0.125 μg/mL (Cell Signaling Technology), plus Anti-Rabbit IgG EuN1 at 0.25 μg/ml (Perkin-Elmer Life Sciences) in a solution of 10 mM MOPS pH=7.5, 150 mM NaCl, 0.05% Tween-20, 0.02% NaN3, 1% BSA, 0.1% Gelatin for 45 minutes. The plates were then washed as before. 50 μL per well of DELFIA Enhancement Solution (Perkin-Elmer Life Sciences) was added to the plate and incubated for 15 minutes at RT prior to being read on an Envision Model 2104 multi-label reader using a 340 nm excitation wavelength and a […] emission wavelength for detection.

[2] = target: inactive, unphosphorylated (0-phos), human IRAK4 FL (Full Length) (Homo sapiens (Human), UniProt Q9NWZ3); experiment: IRAK4 Enzymatic DELFIA Assay, Protocol B; assay type: biochemical; conditions: 600 μM ATP (KM), full-length recombinant human IRAK4
Method: IRAK4 Enzymatic DELFIA Assay, Protocol B.
The test compound is solubilized in DMSO to a stock concentration of 30 mM. The dose response plates were prepared with a 4 mM primary compound concentration, serialized in DMSO and spotted (1 μL) into 384-well polypropylene plates as before.
20 uL of 20 mM HEPES pH=7.5, 5 mM MgCl2, 0.0025% Brij-35, 600 μM ATP, and 100 nM ERM-biotinylated peptide (AGAGRDKYKTLRQIR) was added to start the reaction, which was run for 90 minutes at RT and stopped by the addition of 20 μL 0.3M EDTA.
as §1

Chain of human IRAK4 FL (Full Length), phosphorylated (Q9NWZ3 whole entry): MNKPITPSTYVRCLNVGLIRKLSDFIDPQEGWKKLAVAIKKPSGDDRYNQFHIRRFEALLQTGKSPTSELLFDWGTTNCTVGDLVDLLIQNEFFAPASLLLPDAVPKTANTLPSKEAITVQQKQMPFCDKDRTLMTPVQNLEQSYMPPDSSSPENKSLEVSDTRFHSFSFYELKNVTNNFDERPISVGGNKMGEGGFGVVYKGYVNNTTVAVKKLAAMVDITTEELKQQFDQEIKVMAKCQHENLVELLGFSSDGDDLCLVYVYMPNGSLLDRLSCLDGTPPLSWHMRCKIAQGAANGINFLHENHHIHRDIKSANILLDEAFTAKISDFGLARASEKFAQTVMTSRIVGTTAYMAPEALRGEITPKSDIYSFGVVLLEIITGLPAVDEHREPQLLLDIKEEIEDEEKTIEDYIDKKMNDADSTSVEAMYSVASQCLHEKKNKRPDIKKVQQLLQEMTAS
Chain of inactive, unphosphorylated (0-phos), human IRAK4 FL (Full Length) (Q9NWZ3 whole entry): as above

SMILES | IC50 [1] | IC50 [2]
COc1cc2c(OCC34CC3CC(=O)N4)nccc2cc1C(N)=O (racemic) [Example 29, 7-methoxy-1-[(3-oxo-2-azabicyclo[3.1.0]hex-1-yl)methoxy]isoquinoline-6-carboxamide] | 4200 nM | 350 nM
CC[C@@H]1[C@H](F)C(=O)N[C@@H]1COc1cccc2cc(C(N)=O)c(OC)nc12 [Example 1, 8-{[(2S,3S,4S)-3-Ethyl-4-fluoro-5-oxopyrrolidin-2-yl]methoxy}-2-methoxyquinoline-3-carboxamide] | 7.5 nM | 2 nM
CC(C)Oc1cc2c(OC[C@@H]3CCC(=O)N3)ncc(-c3ncco3)c2cc1C(N)=O [Example 2, 4-(1,3-Oxazol-2-yl)-1-{[(2S)-5-oxopyrrolidin-2-yl]methoxy}-7-(propan-2-yloxy)isoquinoline-6-carboxamide] | 188 nM | 4 nM
Cc1c[nH]c(-c2cnc(OC[C@@H]3CCC(=O)N3)c3cc(OC(C)C)c(C(N)=O)cc23)n1 [Example 3, 4-(4-Methyl-1H-imidazol-2-yl)-1-{[(2S)-5-oxopyrrolidin-2-yl]methoxy}-7-(propan-2-yloxy)isoquinoline-6-carboxamide] | 2900 nM | 230 nM
CC(C)Oc1cc2c(OC[C@@H]3CCC(=O)N3)ncc(-c3ccn(C)n3)c2cc1C(N)=O [Example 4, 4-(1-Methyl-1H-pyrazol-3-yl)-1-{[(2S)-5-oxopyrrolidin-2-yl]methoxy}-7-(propan-2-yloxy)isoquinoline-6-carboxamide] | 112 nM | 10 nM
CC(C)Oc1cc2c(OC[C@@H]3CCC(=O)N3)ncc(-c3cnn(C)c3)c2cc1C(N)=O [Example 5, 4-(1-methyl-1H-pyrazol-4-yl)-1-{[(2S)-5-oxopyrrolidin-2-yl]methoxy}-7-(propan-2-yloxy)isoquinoline-6-carboxamide] | 3.7 nM | 1.1 nM
Cc1coc(-c2cnc(OC[C@@H]3CCC(=O)N3)c3cc(OC(C)C)c(C(N)=O)cc23)n1 [Example 6, 4-(4-Methyl-1,3-oxazol-2-yl)-1-{[(2S)-5-oxopyrrolidin-2-yl]methoxy}-7-(propan-2-yloxy)isoquinoline-6-carboxamide] | 227 nM | 3 nM
Cc1nc(-c2cnc(OC[C@@H]3CCC(=O)N3)c3cc(OC(C)C)c(C(N)=O)cc23)oc1C [Example 7, 4-(4,5-Dimethyl-1,3-oxazol-2-yl)-1-{[(2S)-5-oxopyrrolidin-2-yl]methoxy}-7-(propan-2-yloxy)isoquinoline-6-carboxamide] | 57 nM | 3.2 nM
CC(C)Oc1cc2c(OC[C@@H]3CCC(=O)N3)ncc(-c3nc(CO)c[nH]3)c2cc1C(N)=O [Example 8, 4-[4-(Hydroxymethyl)-1H-imidazol-2-yl]-1-{[(2S)-5-oxopyrrolidin-2-yl]methoxy}-7-(propan-2-yloxy)isoquinoline-6-carboxamide] | 2100 nM | 190 nM
Cc1cnc(-c2cnc(OC[C@@H]3CCC(=O)N3)c3cc(OC(C)C)c(C(N)=O)cc23)o1 [Example 9, 4-(5-Methyl-1,3-oxazol-2-yl)-1-{[(2S)-5-oxopyrrolidin-2-yl]methoxy}-7-(propan-2-yloxy)isoquinoline-6-carboxamide] | 89 nM | 4.3 nM
CC[C@@H]1CC(=O)N[C@@H]1COc1ncc(NS(=O)(=O)c2ccccc2)c2cc(C(N)=O)c(OC(C)C)cc12 [Example 10, 1-{[(2S,3R)-3-ethyl-5-oxopyrrolidin-2-yl]methoxy}-4-[(phenylsulfonyl)amino]-7-(propan-2-yloxy)isoquinoline-6-carboxamide] | > 100000 nM | 5700 nM
CC[C@@H]1CC(=O)N[C@@H]1COc1ncc(NS(=O)(=O)c2cccnc2)c2cc(C(N)=O)c(OC(C)C)cc12 [Example 11, 1-{[(2S,3R)-3-Ethyl-5-oxopyrrolidin-2-yl]methoxy}-7-(propan-2-yloxy)-4-[(pyridin-3-ylsulfonyl)amino]isoquinoline-6-carboxamide] | > 100000 nM | 1300 nM
CC[C@@H]1CC(=O)N[C@@H]1COc1ncc(NS(=O)(=O)c2c[nH]cn2)c2cc(C(N)=O)c(OC(C)C)cc12 [Example 12, 1-{[(2S,3R)-3-Ethyl-5-oxopyrrolidin-2-yl]methoxy}-4-[(1H-imidazol-4-ylsulfonyl)amino]-7-(propan-2-yloxy)isoquinoline-6-carboxamide] | > 100000 nM | 6500 nM
CC[C@@H]1CC(=O)N[C@@H]1COc1ncc(NS(=O)(=O)c2cn(C)cn2)c2cc(C(N)=O)c(OC(C)C)cc12 [Example 13, 1-{[(2S,3R)-3-Ethyl-5-oxopyrrolidin-2-yl]methoxy}-4-{[(1-methyl-1H-imidazol-4-yl)sulfonyl]amino}-7-(propan-2-yloxy)isoquinoline-6-carboxamide] | > 100000 nM | 12000 nM
CC[C@@H]1CC(=O)N[C@@H]1COc1ncc(NS(=O)(=O)c2cn(C)c(C)n2)c2cc(C(N)=O)c(OC(C)C)cc12 [Example 14, 4-{[(1,2-Dimethyl-1H-imidazol-4-yl)sulfonyl]amino}-1-{[(2S,3R)-3-ethyl-5-oxopyrrolidin-2-yl]methoxy}-7-(propan-2-yloxy)isoquinoline-6-carboxamide] | 29000 nM | 15000 nM
CC[C@@H]1[C@H](F)C(=O)N[C@@H]1COc1ncc(N)c2cc(C(N)=O)c(OC)cc12 [Example 15, 4-Amino-1-{[(2S,3S,4S)-3-ethyl-4-fluoro-5-oxopyrrolidin-2-yl]methoxy}-7-methoxyisoquinoline-6-carboxamide] | 2.2 nM | 0.5 nM
CC(C)Oc1cc2c(OC[C@@H]3NC(=O)[C@@H](F)C34CC4)nccc2cc1C(N)=O [Example 16, 1-(((4R,7S)-7-fluoro-6-oxo-5-azaspiro[2.4]heptan-4-yl)methoxy)-7-isopropoxyisoquinoline-6-carboxamide] | 4500 nM | 390 nM
CC(C)Oc1cc2c(OC[C@H]3NC(=O)[C@H](F)C34CC4)nccc2cc1C(N)=O [Example 17, 1-(((4S,7R)-7-fluoro-6-oxo-5-azaspiro[2.4]heptan-4-yl)methoxy)-7-isopropoxyisoquinoline-6-carboxamide] | 20.7 nM | 1.2 nM
CC(C)Oc1cc2c(OC[C@@H]3NC(=O)[C@H](F)C34CC4)nccc2cc1C(N)=O [Example 18, 1-(((4R,7R)-7-fluoro-6-oxo-5-azaspiro[2.4]heptan-4-yl)methoxy)-7-isopropoxyisoquinoline-6-carboxamide] | 16000 nM | 870 nM
CC(C)Oc1cc2c(OC[C@H]3NC(=O)[C@@H](F)C34CC4)nccc2cc1C(N)=O [Example 19, 1-(((4S,7S)-7-fluoro-6-oxo-5-azaspiro[2.4]heptan-4-yl)methoxy)-7-isopropoxyisoquinoline-6-carboxamide] | 5.4 nM | 0.6 nM
COc1cc2c(OC[C@H]3NC(=O)[C@H](F)C34CC4)nccc2cc1C(N)=O [Example 21, 1-(((4S,7R)-7-fluoro-6-oxo-5-azaspiro[2.4]heptan-4-yl)methoxy)-7-methoxyisoquinoline-6-carboxamide] | 38.5 nM | 21 nM
NC(=O)c1cc2ccnc3c2cc1OCCOC[C@H]1C[C@@H](CO3)NC1=O [Example 28, (3S,6R)-5-oxo-2,3,4,5,6,7,9,10-octahydro-12,14-(ethanediylidene)-3,6-methanopyrido[2,3-l][1,4,11,8]trioxazacyclopentadecine-19-carboxamide] | 1900 nM | –
CNC(=O)c1cc2ccnc(OC[C@H]3NC(=O)[C@@H](F)[C@H]3C)c2cc1OC [Example 33, 1-(((2S,3S,4S)-4-fluoro-3-methyl-5-oxopyrrolidin-2-yl)methoxy)-7-methoxy-N-methylisoquinoline-6-carboxamide] | – | 2000 nM
